Values quoted from earlier work, collected in patent publication US20260209855A1, “COMPOSITIONS AND METHODS FOR DETECTION AND TREATMENT OF PROSTATE CANCER” (The Regents of the University of California, priority 2022, published 2026).

Assays:
[1] = tested on: benign prostatic hyperplasia (BPH); details: patients with BPH and AI, treatment prior to BPH diagnosis; result in words
[2] = tested on: PCa; details: result in words
[3] = tested on: PCa patients; details: clinical trials; result in words

CN(Cc1cnc2nc(N)nc(N)c2n1)c1ccc(C(=O)N[C@@H](CCC(=O)O)C(=O)O)cc1 [methotrexate]
Likelihood to develop BPH [1]: did not have this effect

bevacizumab
Clinical trial results in the treatment of PCa [2]: conflicting results

B1: siltuximab (antibody, chains of the INN, looked up, V domains shown)
VH: EVQLVESGGKLLKPGGSLKLSCAASGFTFSSFAMSWFRQSPEKRLEWVAEISSGGSYTYYPDTVTGRFTISRDNAKNTLYLEMSSLRSEDTAMYYCARGLWGYYALDYWGQGTSVTVSS
VL: QIVLIQSPAIMSASPGEKVTMTCSASSSVSYMYWYQQKPGSSPRLLIYDTSNLASGVPVRFSGSGSGTSYSLTISRMEAEDAATYYCQQWSGYPYTFGGGTKLEIK
notes: An IL-6 antagonist tested in clinical trials in PCa patients
Clinical efficacy in PCa patients [3]: no clinical efficacy
